# From ChEMBL document CHEMBL1156094, “Imidazopyridine-5,6,7,8-tetrahydro-8-quinolinamine derivatives with potent activity against HIV-1” (Bioorg Med Chem Lett, 2009)
# Activity calls are given as the source filed them. No cut-off for these calls is given here.
# Assays:
# [1] = biological target: C-X-C chemokine receptor type 4 (Homo sapiens) (UniProt P61073); assay: Antagonist activity at CXCR4; type: functional
# [2] = system: Human immunodeficiency virus 1; assay: Antiviral activity against HIV1 3B infected human HOS cells expressing human CXCR4 and CD4 assessed as inhibition of viral infection by luciferase reporter gene assay; type: functional, organism-based; conditions: Human immunodeficiency virus 1, 3B
# [3] = Cytotoxicity against human HOS cells; type: cell-based
# [4] = system: Human immunodeficiency virus 1; assay: Antiviral activity against HIV1 3B infected human HOS cells expressing human CXCR4 and CD4 assessed as inhibition of viral infection in presence of human serum albumin and alpha-acid glycoprotein by luciferase reporter gene assay; type: functional; parameters: unit not given here
# [5] = Clearance in rat at 1 mg/kg, iv; type: ADME, organism-based; parameters: dose 1 mg/kg, route intravenous; conditions: in vivo
# [6] = Half life in rat at 1 mg/kg, iv; type: ADME, organism-based; parameters: dose 1 mg/kg, route intravenous; conditions: in vivo
# [7] = Oral bioavailability in rat at 3 mg/kg; type: ADME, organism-based; conditions: in vivo
# [8] = Volume of distribution at steady state in rat at 1 mg/kg, iv; type: ADME, organism-based; parameters: dose 1 mg/kg, route intravenous; conditions: in vivo, read-out: Vdss
# [9] = Volume of distribution at steady state in Beagle dog at 1 mg/kg, iv; type: ADME, organism-based, Canis lupus familiaris; parameters: dose 1 mg/kg, route intravenous; conditions: in vivo, read-out: Vdss
# [10] = Oral bioavailability in Beagle dog at 3 mg/kg; type: ADME, organism-based, Canis lupus familiaris; conditions: in vivo
# [11] = Volume of distribution at steady state in cynomolgus monkey at 1 mg/kg, iv; type: ADME, organism-based, Macaca fascicularis; parameters: dose 1 mg/kg, route intravenous; conditions: in vivo, read-out: Vdss
# [12] = Half life in cynomolgus monkey at 1 mg/kg, iv; type: ADME, organism-based, Macaca fascicularis; parameters: dose 1 mg/kg, route intravenous; conditions: in vivo
# [13] = Clearance in cynomolgus monkey at 1 mg/kg, iv; type: ADME, organism-based, Macaca fascicularis; parameters: dose 1 mg/kg, route intravenous; conditions: in vivo
# [14] = Oral bioavailability in cynomolgus monkey at 3 mg/kg; type: ADME, organism-based, Macaca fascicularis; conditions: in vivo
# [15] = Half life in Beagle dog at 1 mg/kg, iv; type: ADME, organism-based, Canis lupus familiaris; parameters: dose 1 mg/kg, route intravenous; conditions: in vivo
# [16] = Clearance in Beagle dog at 1 mg/kg, iv; type: ADME, organism-based, Canis lupus familiaris; parameters: dose 1 mg/kg, route intravenous; conditions: in vivo
# Sequence of C-X-C chemokine receptor type 4 (Homo sapiens) (P61073 whole entry): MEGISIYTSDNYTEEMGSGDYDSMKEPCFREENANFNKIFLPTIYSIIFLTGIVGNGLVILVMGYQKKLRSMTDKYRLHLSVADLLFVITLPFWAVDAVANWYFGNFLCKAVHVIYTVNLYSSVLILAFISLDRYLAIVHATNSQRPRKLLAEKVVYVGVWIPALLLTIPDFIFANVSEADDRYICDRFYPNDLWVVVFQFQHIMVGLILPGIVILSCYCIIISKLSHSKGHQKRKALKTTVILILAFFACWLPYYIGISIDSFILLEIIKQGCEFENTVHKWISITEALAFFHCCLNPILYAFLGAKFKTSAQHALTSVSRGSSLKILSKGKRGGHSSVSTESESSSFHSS
Activity [1],IC50 [2] [nM],Structure (SMILES),CC50 [3] [nM],Activity [4],other results
Active,43,CN(C)[C@@H]1CCN(c2cccc3nc(CN(C)[C@H]4CCCc5cccnc54)cn23)C1,4900,5,
Active,3,CC(C)N1CCN(c2cccc3nc(CN(C)[C@H]4CCCc5cccnc54)cn23)CC1,7100,3.3,clearance [5]: 31 mL/min/kg; half-life [6]: 3.9 h; bioavailability [7]: 29%; Vd [8]: 10.6 L/kg
Active,4,CCN1CCN(c2cccc3nc(CN(C)[C@H]4CCCc5cccnc54)cn23)CC1,3900,10,
Active,4,CN1CCN(c2cccc3nc(CN(CC4CC4)[C@H]4CCCc5cccnc54)cn23)CC1,8000,6,clearance [5]: 9.9 mL/min/kg; half-life [6]: 8.8 h; bioavailability [7]: 31%; Vd [8]: 6 L/kg
Active,640,CN1CCN(c2cccn3cc(CN(C)[C@H]4CCCc5cccnc54)nc23)CC1,> 5000,,
Active,2,CCN(Cc1cn2c(N3CCN(C)CC3)cccc2n1)[C@H]1CCCc2cccnc21,8100,1.5,
Active,84,CN1CCN(c2cccc3nc(CN(C)[C@@H]4CCCc5cccnc54)cn23)CC1,12600,,
Active,28,CN1CCN(c2cccc3nc(CN(Cc4ccccc4)[C@H]4CCCc5cccnc54)cn23)CC1,9300,,
Active,4,CN(Cc1cn2c(N3CCN4CCCC4C3)cccc2n1)[C@H]1CCCc2cccnc21 (some centres undefined),3900,,
Active,30,CN1CCC(N(C)c2cccc3nc(CN(C)[C@H]4CCCc5cccnc54)cn23)C1 (some centres undefined),10800,1.3,
Active,4,CN(C)C1CCN(c2cccc3nc(CN(C)[C@H]4CCCc5cccnc54)cn23)CC1,3400,8,clearance [5]: 5.7 mL/min/kg; half-life [6]: 10 h; bioavailability [7]: 7%; Vd [8]: 5.1 L/kg
Active,,CN1CCN(c2cccc3nc(CN(C)[C@H]4CCCc5cccnc54)[nH]c23)CC1,> 5000,80,
Active,23,CC(C)CN(Cc1cn2c(N3CCN(C)CC3)cccc2n1)[C@H]1CCCc2cccnc21,20000,,
Active,2,CN1CCN(c2cccc3nc(CN(C)[C@H]4CCCc5cccnc54)cn23)CC1,4500,1.5,Vd [9]: 8.5 L/kg; clearance [5]: 14 mL/min/kg; bioavailability [10]: 13%; Vd [11]: 3.7 L/kg; half-life [12]: 10 h; clearance [13]: 6 mL/min/kg; bioavailability [14]: 10%; half-life [15]: 7.6 h; clearance [16]: 18 mL/min/kg; half-life [6]: 5.5 h; bioavailability [7]: 11%; Vd [8]: 4.9 L/kg
Active,4,CN(Cc1cn2c(N3CCC(N)CC3)cccc2n1)[C@H]1CCCc2cccnc21,6300,,
Active,5,CC(C)N(Cc1cn2c(N3CCN(C)CC3)cccc2n1)[C@H]1CCCc2cccnc21,8900,5,
Active,3,CCCN(Cc1cn2c(N3CCN(C)CC3)cccc2n1)[C@H]1CCCc2cccnc21,6700,5,clearance [5]: 8.9 mL/min/kg; half-life [6]: 10.7 h; bioavailability [7]: 41%; Vd [8]: 6.2 L/kg
Active,690,CN(Cc1cn2c(N3CCOCC3)cccc2n1)C1CCCc2cccnc21 (racemic),> 10000,,
Active,3,CCCCN(Cc1cn2c(N3CCN(C)CC3)cccc2n1)[C@H]1CCCc2cccnc21,5300,,
Active,127,CN1CCN(c2cccc3nc(CN(CC(F)(F)F)C4CCCc5cccnc54)cn23)CC1 (racemic),> 5000,,
Active,8,CN(C)[C@H]1CCN(c2cccc3nc(CN(C)[C@H]4CCCc5cccnc54)cn23)C1,2100,3,clearance [5]: 9.5 mL/min/kg; half-life [6]: 7.9 h; bioavailability [7]: 2%; Vd [8]: 4.5 L/kg

Structure (SMILES),Activity [1],IC50 [2] [nM],CC50 [3] [nM],Activity [4],other results
CN1CCC(N(C)c2cccc3nc(CN(C)[C@H]4CCCc5cccnc54)cn23)CC1,Active,49,12500,,
